Experimental data taken from publication PMC10285738, “Identification of macrocyclic peptides which activate bacterial cylindrical proteases” (RSC Medicinal Chemistry, 2023).
Entries after “also recorded” stand apart in the source; their conditions may differ.

How the values were obtained:
Ec.ClpP [1] = details: 200 µM ligand, ClpP 1.0 µM, 24 h at 37 °C, SDS-PAGE densitometry, at least three independent experiments, Fig. 3D
Protocol: presence of E. coli ClpP or S. aureus ClpP (1.0 µM), and bovine beta-casein (Sigma-Aldrich –
catalogue number C6905, 5.0 µM or 3 µM) in Tris HCl buffer (100 mM, pH 7.6) with KCl (100 mM)
or HEPES buffer (100 mM, pH 7) with NaCl (150 mM) at 37 °C. Aliquots were drawn at the
indicated time points, quenched with SDS-loading buffer and heated to 90 °C for 5 min. Beta-
casein digestion was visualized by non-reducing Tris-glycine SDS-PAGE with 12 % acrylamide
and 4 % stacking gel or reducing Bolt 4-12% Bis-Tris Plus gels. Gels were run at constant voltage
(160-200 V) for 60 min and visualized with Coomassie brilliant blue dye. Protein bands were
quantified by densitometry using ImageJ from at least three independent experiments.
A two-fold dilution series in DMSO was performed to keep DMSO content identical. Highest
Prism and a non-linear fit was applied to estimate the EC50. Data is represented as mean ± SD of three independent experiments.

Ec.ClpP [2] = details: 200 µM peptide, E. coli ClpP 0.5 µM, FITC-casein 1.8 µM + beta-bovine casein 4.8 µM, Tris HCl 100 mM pH 7.6, KCl 100 mM, 24 h at 37 °C, exc. 483 nm, em 530 nm; duplicates of at least two independent experiments; vs DMSO
Protocol: Next, we screened for enzymatic activation of ClpP to quickly assess the chemical library for binding and understand whether IGF-bearing macrocyclic peptides could modulate ClpP enzymatic function. Modulation of ClpP was assessed using a biochemical assay monitoring the enzymatic function of the protease based on previously reported successes for the identification of allosteric activators of ClpP.[9] […] FITC-casein, a protein labeled with fluorescein to the extent of self-quenching, is a suitable substrate for this assay, as it can only enter the proteolytic core upon apical pore opening and is indirectly a measure for the conformational state of the protease.[2,10] Enzymatic degradation of FITC-casein alleviates self-quenching giving rise to an increased fluorescence intensity and an easy readout for our purpose to identify any ligand that positively modulates the enzymatic activity of recombinant E. coli ClpP (Ec.ClpP).
Ec.ClpP was incubated for 24 h at 37 °C in the presence of a peptide library, or vehicle (DMSO) and fluorescence intensity was measured thereafter (Fig. 2C and S1 ^†). […] This was reproducibly confirmed in three independent experiments (varying the batch of enzyme).

[3] = FITC-casein fluorescence with/without Ec.ClpP (false-positive control); details: 200 µM, with vs without Ec.ClpP, 24 h at 37 °C, Fig. S2
Protocol: (§1) Walther et al. Supporting Information
Protein purification and isolation […]
expressed in E. coli C41 (DE3) cells. A single colony was incubated overnight in 2xYT media containing ampicillin (0.1 mg/mL) at 37 °C. Subsequently 10 mL of the overnight inoculum was […]
applied to a Ni-NTA affinity column (GE Healthcare). The column was washed with an increasing […]
Protein containing fraction
10 mM MgCl2, glycerol 10 % (v/v)). The pure protein sample was obtained after size exclusion […]
0.5 mM EDTA, 100 mM KCl, 10 % glycerol).
After 18 hours of growth at 25 °C, cells […]
mM Tris-HCl, 1 mM EDTA, pH 8).
Here, the protein was eluted with an isocratic gradient of buffer containing 50 mM biotin. Protein was concentrated and buffer […]
stocks were stored in storage buffer at -20 °C. For long term storage, samples were stored at -80 […]
FITC casein degradation screen
(§2) All concentrations are given as final concentrations. Ligands were incubated at 200 µM in the […]
samples is subtracted from all samples.

Sa.ClpP [4] = molecular target: T1, Sa.ClpP (Staphylococcus aureus, UniProt Q2G036); test: Dose-response of beta-casein degradation by Sa.ClpP; type: biochemical, S. aureus; details: two-fold dilution series in DMSO, highest concentration 200 µM, densitometry, non-linear fit; three independent experiments; Fig. 4B; read-out: EC50 (effective dose), Sa.ClpP-dependent digestion of beta-casein
T1 construct: Strep-tag (C); made in house; host or cells: E. coli SG1146a (lacks endogenous ClpP)
Protocol: (§3) Beta-casein degradation by Ec.ClpP or Sa.ClpP
(§4) All concentrations are given as final concentrations. Ligands were incubated at 200 µM in […]
(§5) Aliquots were drawn at the
(§6) Gels were run at constant voltage […]
(§7) concentration was 200 µM. The results from densitometric analysis were plotted in Graphpad […]
(§8) Data is represented as mean ± SD of three independent experiments. […]

Sa.ClpP [5] = molecular target: T1, Sa.ClpP; test: Thermal shift assay (differential scanning fluorimetry); type: binding; details: S. aureus ClpP 5 µM, ligand 200 µM, HEPES 100 mM pH 7, NaCl 150 mM, sypro orange 5x, 30-90 °C in 0.5 °C increments; mean ± SD of duplicates of at least two independent experiments
From the text: All concentrations are given as final concentrations. […]
real-time qPCR (Bio-Rad CF X96).
SD of duplicates of at least two independent experiments.
equilibrated Superdex 200 Increase 10/300 GL column (Cytiva). […]

Sa.ClpP [6] = molecular target: T1, Sa.ClpP; test: FtsZ degradation by Sa.ClpP, SDS-PAGE; type: biochemical, S. aureus; details: 200 µM, ADEP2 at 10 µM, Sa. FtsZ 4.0 µM, 24 h, SDS-PAGE densitometry, at least three independent experiments, Fig. 4D
From the text: Lastly, we set out to answer to what extent ADEP and other allosteric activators of ClpP resemble the activation process of ClpX. To this end, we set up a biochemical assay and monitored the digestion of FtsZ, an essential protein for cell division, which is the major determinant for the filamentation phenotype induced by ADEP-activated ClpP.[17] […] We performed docking studies of the identified macrocycles into the same pocket where ADEP binds (see ESI ^† for full details).
as §1
FITC casein degradation rate
as §2
The linear part of the fluorescence curve was used to determine the relative degradation rate. Data analysis was performed by OriginPro […]
as §3, §4, §5, §6, §7
Data is represented as mean ± SD of three independent experiments.
FtsZ degradation by Sa.ClpP […]
at a final concentration of 4.0 µM. […]
casein degradation assay. […]
SD of duplicates of at least two independent experiments. […]
equilibrated Superdex 200 Increase 10/300 GL column (Cytiva). Stabilization of Sa.ClpP in […]

Sa.ClpP [7] = molecular target: T1, Sa.ClpP; test: beta-casein degradation by Sa.ClpP, SDS-PAGE; type: biochemical, S. aureus; details: ligands at 200 µM, ADEP2 at 10 µM, ClpP 1.0 µM, 24 h at 37 °C, Fig. 4A
Protocol: as §3, §4, §5, §6, §7, §8

ClpP = details: in words, through another mechanism; cited from earlier work
Protocol: Modulation of ClpP was assessed using a biochemical assay monitoring the enzymatic function of the protease based on previously reported successes for the identification of allosteric activators of ClpP.[9]

Sa.ClpP [8] = molecular target: T1, Sa.ClpP; test: Gel filtration (SEC) of ClpP oligomeric state; design: species or system S. aureus; details: Sa.ClpP 1 mg/mL, ligand 200 µM, destabilizing buffer Tris-HCl 100 mM pH 7.6, 100 mM KCl, overnight at 32 °C; Superdex 200

T1 sequence (Q2G036 whole entry): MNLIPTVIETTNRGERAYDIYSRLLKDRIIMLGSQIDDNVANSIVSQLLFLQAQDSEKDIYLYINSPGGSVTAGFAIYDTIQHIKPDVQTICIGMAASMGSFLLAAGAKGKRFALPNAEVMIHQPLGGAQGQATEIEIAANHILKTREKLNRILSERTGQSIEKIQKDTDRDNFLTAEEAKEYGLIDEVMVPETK

Compound	Ec.ClpP-dependent beta-casein digestion (Ec.ClpP [1])	increase in fluorescence intensity / enzymatic activation of Ec.ClpP (FITC-casein) (Ec.ClpP [2])	fluorescence signal in presence or absence of Ec.ClpP (false-positive check) [3]	EC50 (Sa.ClpP [4])	apparent increase in melting temperature of Sa.ClpP (Sa.ClpP [5])	Sa.ClpP-dependent Sa.FtsZ digestion (Sa.ClpP [6])	activation of Sa.ClpP (beta-casein digestion) (Sa.ClpP [7])	effect on enzymatic function of ClpP homologues (ClpP)	stabilization/retention of tetradecameric Sa.ClpP (Sa.ClpP [8])
CC[C@H](C)[C@@H]1NC(=O)CNC(=O)[C@@H](NC(C)=O)CSCC(=O)CSC[C@@H](C(N)=O)NC(=O)CNC(=O)[C@H](Cc2ccccc2)NC(=O)CNC1=O [P4-B]	control of Ec.ClpP function was confirmed by SDS-PAGE analysis of beta-casein digestion	significant increase of fluorescence intensity over the DMSO-treated sample	did not exhibit this behaviour	> 100 µM	0.6 ± 0.2 °C	also induced the digestion of FtsZ, yet less efficiently	able to activate the enzymatic function of Sa.ClpP		
CC(C)C[C@H](NC(=O)[C@H](Cc1ccccc1)NC(=O)c1cnccn1)B(O)O [bortezomib]								able to increase enzymatic function of ClpP homologues	
CCCC/C=C/C(=O)N[C@@H](Cc1cc(F)cc(F)c1)C(=O)OC [compound 2, reference compound]						activated Sa.ClpP, and FtsZ was digested			able to retain the tetradecamer in Tris-HCl; also recorded: able to rescue and stabilize the tetradecameric structure of Sa.ClpP
